Assays:
Type in all cases: in vivo
[1] = tested on: potted imidazolinone tolerant wheat, variety ‘BW755’; test: Greenhouse pot trial, total shoot biomass (dry weight) of wheat, fluxapyroxad / imazamox (Example 2); details: solo; for Shoot dry weight: 7 days following the last treatment; for Observed efficacy: increase of biomass vs untreated control
Procedure: (§1) Wheat was grown in 2010 in the greenhouse at the agricultural center at Limburgerhof, Germany. The imidazolinone tolerant variety ‘BW755’ was planted in pots. The trial was setup with 8 replications with one pot 10 plants each per replication.
(§2) The active ingredients were used as formulations. The formulations were used in the product rates given below and in table 3. The products were applied in a total spray volume of 375 l/ha. Products were diluted in water. The spray solution was applied in a spray cabinet using a spray boom with flat fan nozzles.
Imazamox was applied once as Raptor™ (120 g active per liter soluble concentrate) when the wheat plants had the first leaf fully developed (BBCH 11). Fluxapyroxd was applied once as an experimental emulsion concentrate (62.5 g active ingredient per liter) at 2 to 3 leaves fully developed (BBCH 12/13). The application of the mixture was carried out as a sequence, wherein Raptor™ was applied when the first leave had developed while the fluxapyroxad formulation was applied when 2-3 leaves had developed.
(§3) Total shoot biomass was assessed (table 3) by harvesting all plants of a pot 7 days following the last treatment (expressed as g per pot). Afterwards, dry weight of total shoot biomass per pot was evaluated. After measuring fresh weight, the samples were dried in a drying cabinet at 65° C. for two days. The efficacy was calculated as % increase of biomass in the treatments compared to the untreated control:
(§4) a corresponds to the biomass of the treated plants in g/pot and b corresponds to the biomass of the untreated (control) plants in g/pot

[2] = tested on: wheat plants of the imidazolinone tolerant variety ‘BW755’; test: Transpiration (water loss) of cut wheat plants as indicator of drought tolerance, fluxapyroxad / imazethapyr (Example 3); details: for Mean water loss / Observed efficacy: solo; for Mean water loss: 24 h; for Observed efficacy: decrease of water loss vs control
Procedure: (§5) The transpiration as an indicatior of drought tolerance of wheat plants treated or not treated with fluxapyroxad solo, imazethapyr solo, and mixtures thereof was assessed. 10 to 14 days old wheat plants were cut above the ground and placed into Eppendorf caps containing 2.2 ml of the test solution. The wheat plants were incubated for 24 h at 25° C. and 50% relative humidity in a growth chamber. The weight of the Eppendorf cap including the test solution but excluding the leaves was assessed before and after incubation. The difference in weight was recorded as the loss of water through transpiration. This assay is generally used to asses the drought tolerance of plants.
(§6) In the present example wheat plants of the imidazolinone tolerant variety ‘BW755’ were grown at 18° C. for 10 days in the greenhouse prior to the treatment and the incubation. 10 plants per treatment were treated and incubated as described. Fluxapyroxad and imazethapyr were dissolved in 0.5% DMSO. The 0.5% DMSO solution consisted of 0.5% DMSO dissolved in water. The tested concentrations are as described in table 4. Control plants were treated with the blank 0.5% DMSO solution only.
The efficacy of the tested compounds and mixtures was calculated as % of water loss compared to the control: […]
(§7) a corresponds to water loss of plants after incubation in the treated plants in g and b corresponds to water loss of plants after incubation in the control in g.

[3] = tested on: potted imidazolinone tolerant wheat, variety ‘BW755’; test: Greenhouse pot trial, total shoot biomass (dry weight) of wheat, fluxapyroxad / imazethapyr (Example 4); details: solo; for Shoot dry weight: 7 days after the last treatment; for Observed efficacy: increase of biomass vs untreated control
Procedure: as §1
as §2, with “6.” for “3.”
Imazethapyr was applied once as PIVOT 100 SL™ (100 g active per liter soluble concentrate) when the wheat plants had the first leaf fully developed (BBCH 11). Fluxapyroxd was applied once as an experimental emulsion concentrate (62.5 g active ingredient per liter) when 2 to 3 leaves were fully developed (BBCH 12/13). The application of the mixture was applied as a sequence of PIVOT 100 SL™ at the stage when the first leave had developed and while the fluxapyroxad formulation was applied when 2-3 leaves had developed.
as §3, with “6)” for “3)”, “after” for “following”, “Dry” for “Afterwards, dry”
as §4

[4] = tested on: wheat plants of the imidazolinone tolerant variety ‘BW755’; test: Transpiration (water loss) of cut wheat plants as indicator for drought tolerance, fluxapyroxad / imazamox (Example 1); details: solo; for Mean water loss: 24 h at 25° C.; for Observed efficacy: decrease of water loss vs control, 24 h
Procedure: as §5, with “transpiration” for “transpiration as an indicatior of drought tolerance”, “solo, imazamox” for “solo, imazethapyr”, “was assessed as an indicator for drought tolerance.” for “was assessed.”, “the plant” for “the leaves”, “weight is” for “weight was”, “assay can be” for “assay is generally”
as §6, with “imazamox” for “imazethapyr”, “are” for “are as”, “2.” for “4.”
The efficacy of the tested compounds and respective mixtures was calculated as % of water loss compared to the control: […]
as §7

[5] = 10 ppm, first experiment (table 4)
[6] = 10 ppm, repeated experiment (table 5)
[7] = 50 ppm, first experiment (table 4)
[8] = 100 ppm, first experiment (table 4)
[9] = 100 ppm, repeated experiment (table 5)
[10] = 1 ppm, first experiment (table 4)
[11] = 500 ppm, first experiment (table 4)

## Cn1cc(C(=O)Nc2ccccc2-c2cc(F)c(F)c(F)c2)c(C(F)F)n1 [Fluxapyroxad, N-(3′,4′,5′-trifluorobiphenyl-2-yl)-3-difluoromethyl-1-methyl-1H-pyrazole-4-carboxamide]
[1]; 10.00 g/ha
  Shoot dry weight: 0.619 g/pot
  Observed efficacy: 3.80%
[1]; 50.00 g/ha
  Shoot dry weight: 0.604 g/pot
  Observed efficacy: 1.41%
[1]; 100.00 g/ha
  Shoot dry weight: 0.604 g/pot
  Observed efficacy: 1.30%
[2]; [5]
  Mean water loss: 0.853 g
  Observed efficacy: 14.59%
[2]; [6]
  Mean water loss: 1.266 g
  Observed efficacy: 10.46%
[2]; [7]
  Mean water loss: 0.728 g
  Observed efficacy: 27.16%
[2]; [8]
  Mean water loss: 0.647 g
  Observed efficacy: 35.22%
[2]; [9]
  Mean water loss: 0.628 g
  Observed efficacy: 55.60%
[3]; 10 g/ha
  Shoot dry weight: 0.638 g/pot
  Observed efficacy: −4.75%
[3]; 50 g/ha
  Shoot dry weight: 0.617 g/pot
  Observed efficacy: −7.88%
[3]; 100 g/ha
  Shoot dry weight: 0.649 g/pot
  Observed efficacy: −3.16%
[4]; 50 ppm
  Mean water loss: 0.794 g
  Observed efficacy: 17.68%
[4]; 50 ppm, listed as fluxapyroxad
  Observed efficacy: about 18%

## COCc1cnc(C2=NC(C)(C(C)C)C(=O)N2)c(C(=O)O)c1 (stereo not shown) [Imazamox, imazamox]
[1]; 8.75 g/ha
  Shoot dry weight: 0.631 g/pot
  Observed efficacy: 5.83%
[1]; 8.75 g/ha, listed as imazamox
  Observed efficacy: about 6%
[1]; 17.50 g/ha
  Shoot dry weight: 0.559 g/pot
  Observed efficacy: −6.29%
[1]; 35 g imazamox per ha
  reduction of dry biomass: about 14%
[1]; 35.00 g/ha
  Shoot dry weight: 0.513 g/pot
  Observed efficacy: −13.93%
[4]; 50 ppm
  Mean water loss: 0.907 g
  Observed efficacy: 5.92%
[4]; 100 ppm
  Mean water loss: 0.855 g
  Observed efficacy: 11.32%
[4]; 150 ppm
  Mean water loss: 1.001 g
  Observed efficacy: −3.88%

## CCc1cnc(C2=NC(C)(C(C)C)C(=O)N2)c(C(=O)O)c1 (stereo not shown) [Imazethapyr, imazethapyr]
[2]; [10]
  Mean water loss: 1.249 g
  Observed efficacy: −25.04%
[2]; [6]
  Mean water loss: 1.435 g
  Observed efficacy: −1.52%
[2]; [11]
  Mean water loss: 0.878 g
  Observed efficacy: 12.12%
[2]; alone at 10 ppm, second experiment, table 5
  effect on water loss, in words: tended to be neutral
[3]; 17.5 g imazethapyr per ha
  reduction of dry biomass: about 1%
[3]; 17.5 g/ha
  Shoot dry weight: 0.665 g/pot
  Observed efficacy: −0.72%
[3]; 35 g imazethapyr per ha
  reduction of dry biomass: about 9%
[3]; 35 g/ha
  Shoot dry weight: 0.609 g/pot
  Observed efficacy: −9.07%

— patent US20120245031A1, “Pesticidal Mixtures” (BASF SE, priority 2009, published 2012)
